Test: molar heat capacity at constant pressure
Conditions: 101.33 kPa, Crystal, Small sample (50 mg) DSC

[Ca+2].[O]=[Mo](=[O])([O-])[O-] [calcium molybdate(VI)]
Conditions	molar heat capacity at constant pressure [J/K/mol]
395.5 K	127.3
396.4 K	127.5
396.5 K	127.4
397.4 K	127.6
397.5 K	127.6
398.4 K	127.6
398.5 K	127.7
399.4 K	127.7
399.5 K	127.8
400 K	127.9
400.4 K	127.8
400.5 K	127.9
401.4 K	127.9
401.5 K	128
402.4 K	128.1
402.5 K	128.1
403.4 K	128.2
403.5 K	128.2
404.4 K	128.3
404.5 K	128.3
405.4 K	128.5
405.5 K	128.3
406.4 K	128.6
406.5 K	128.4
407.4 K	128.7
407.5 K	128.5
408.4 K	128.7
408.5 K	128.6
409.4 K	128.8
409.5 K	128.7
410 K	128.9
410.4 K	128.9
410.5 K	128.8
411.4 K	129
411.5 K	128.9
412.4 K	129
412.5 K	129
413.4 K	129.1
413.5 K	129.1
414.4 K	129.2
414.5 K	129.2
415.4 K	129.4
415.5 K	129.3
416.4 K	129.5
416.5 K	129.4
417.4 K	129.6
417.5 K	129.5
418.4 K	129.7
418.5 K	129.6
419.4 K	129.8
419.5 K	129.7
420 K	129.8
420.4 K	129.9
420.5 K	129.8
421.4 K	130
421.5 K	129.9
422.4 K	130.1
422.5 K	130
423.4 K	130.2
423.5 K	130.1
424.4 K	130.3
424.6 K	130.1
425.4 K	130.4
425.6 K	130.2
426.4 K	130.5
426.6 K	130.3
427.4 K	130.6
427.6 K	130.4
428.4 K	130.7
428.6 K	130.5
429.4 K	130.7
429.6 K	130.7
430 K	130.7
430.4 K	130.8
430.6 K	130.9
431.4 K	130.8
431.6 K	131
432.4 K	130.8
432.6 K	131.1
433.4 K	130.9
433.6 K	131.2
434.4 K	130.9
434.6 K	131.3
435.4 K	131
435.6 K	131.3
436.4 K	131
436.6 K	131.3
437.4 K	131.1
437.6 K	131.4
438.4 K	131.2
438.6 K	131.4
439.4 K	131.3
439.6 K	131.4
440 K	131.5
440.4 K	131.4
440.6 K	131.5
441.4 K	131.5
441.6 K	131.6
442.4 K	131.6
442.6 K	131.7
443.4 K	131.7
443.6 K	131.9
444.4 K	131.7
444.6 K	132
445.4 K	131.8
445.6 K	132.2
446.4 K	132
446.6 K	132.3
447.4 K	132.1
447.6 K	132.4
448.4 K	132.2
448.6 K	132.5
449.4 K	132.3
449.6 K	132.6
450 K	132.4
450.4 K	132.4
450.6 K	132.6
451.4 K	132.5
451.6 K	132.6
452.4 K	132.5
452.6 K	132.7
453.4 K	132.6
453.6 K	132.7
454.4 K	132.7
454.6 K	132.7
455.4 K	132.7
455.6 K	132.7
456.4 K	132.8
456.6 K	132.7
457.4 K	132.9
457.6 K	132.8
458.4 K	133
458.7 K	132.9
459.4 K	133
459.7 K	133.1
460 K	133.2
460.4 K	133.1
460.7 K	133.2
461.4 K	133.2
461.7 K	133.4
462.4 K	133.3
462.7 K	133.5
463.4 K	133.4
463.7 K	133.6
464.4 K	133.5
464.7 K	133.7
465.4 K	133.6
465.7 K	133.7
466.4 K	133.6
466.7 K	133.8
467.4 K	133.7
467.7 K	133.8
468.4 K	133.8
468.7 K	133.9
469.4 K	133.9
469.7 K	133.9
470 K	133.9
470.4 K	134
470.7 K	133.9
471.4 K	134
471.7 K	134
472.4 K	134
472.7 K	134.1
473.4 K	134.1
473.7 K	134.2
474.4 K	134.1
474.7 K	134.3
475.4 K	134.1
475.7 K	134.4
476.4 K	134.2
476.7 K	134.4
477.4 K	134.2
477.7 K	134.4
478.4 K	134.4
478.7 K	134.5
479.4 K	134.5
479.7 K	134.6
480 K	134.6
480.4 K	134.6
480.7 K	134.7
481.4 K	134.7
481.7 K	134.7
482.4 K	134.8
482.7 K	134.7
483.4 K	134.9
483.7 K	134.8
484.4 K	135
484.7 K	134.9
485.4 K	135.1
485.7 K	135
486.4 K	135.2
486.7 K	135.1
487.4 K	135.2
487.7 K	135.1
488.4 K	135.3
488.7 K	135.2
489.4 K	135.4
489.7 K	135.2
490 K	135.3
490.4 K	135.4
490.7 K	135.3
491.4 K	135.5
491.7 K	135.4
492.4 K	135.5
492.7 K	135.6
493.4 K	135.5
493.8 K	135.7
494.4 K	135.5
494.8 K	135.7

Reference: the NIST ThermoML archive (doi:10.1016/j.tca.2018.01.023)
